# Test results from US20070270421A1, “Novel pyridine Derivative and Pyrimidine Derivative (1)” (priority 2004, published 2007).
# Target: T1, HGFR (His6-HGFR cytoplasmic domain) (Homo sapiens, UniProt P08581)
# T1 construct: made in house; host or cells: Spodoptera frugiperda Sf9 insect cells (baculovirus, pFastBac-HT)
# Assay: Inhibitory activity against HGFR tyrosine kinase activity (HTRF)
# Format: biochemical
# Conditions: biotin-poly(GT), ATP, 30° C. 10 min, read-out: IC50 (concentration necessary to inhibit HGFR kinase activity by 50%)
# Description: The cytoplasmic domain of HGFR (Genbank Accession No. J02958) is a 1.3 kb DNA fragment beginning with Lys974 and including a stop codon, and described by Park et al. (Proc. Natl. Acad. Sci. U.S.A. 84(18), 6379-6383, 1987). The DNA fragment was isolated from the human placental cDNA library (purchased from Clontech) by PCR (TaKaRa Ex Taq™ Kit, purchased from TaKaRa) using two kinds of primers (SEQ ID NO: 1, 5′-[…]-3′ and SEQ ID NO: 2, 5′-[…]-3′, purchased from Invitrogen). The DNA fragment was cloned into a baculovirus transplace vector (pFastBac™-HT (purchased from GIBCO BRL)) to produce a recombinant construct. The construct was transfected into insect cells (Spodoptera frugiperda 9 (Sf9)) to produce a solution of HGFR transfected baculovirus (preparation of a recombinant baculovirus can be found in the standard text (Bac-to-Bac Baculovirus Expression System (GIBCO BRL)). The cloning of the other receptor tyrosine kinases and preparation of the recombinant baculovirus solutions were performed using a cytoplasmic fragment starting from Lys791 (VEGFR2, Genbank Accession No. L04947), a cytoplasmic fragment starting from Lys398 (FGFR1, Genbank Accession No. X52833) and a cytoplasmic fragment starting from Lys558 (PDGFRβ, Genbank Accession No. M21616) in stead of HGFR in the above method. EGFR was purchased from Sigma (Production No. E-2645).
# To the suspension of Sf9 cells (3×10^8 cells) in SF-900II medium (purchased from Invitrogen) containing 2% FBS was added a solution of HGFR transfected baculovirus above (4 ml), followed by a shaking culture at 27° C. for 48 hrs. The cells infected with the HGFR transfected baculovirus were centrifuged at 1,000 rpm, 4° C. for 5 min to remove the supernatant. The precipitated infected cells were suspended in 80 ml of ice-cold PBS, and centrifuged at 1,000 rpm, 4° C. for 5 min to remove the supernatant. The precipitated infected cells were suspended in 40 ml of ice-cold Lysis Buffer (50 mM Tris-HCl (pH 8.5), 5 mM 2-mercaptoethanol, 100 mM KCl, 1 mM PMSF and 1% (v/v) NP-40). The suspension was centrifuged at 12,000 rpm, 4° C. for 30 min to provide a supernatant.
# The supernatant was loaded onto an Ni-NTA agarose column (3 ml, purchased from Qiagen) equilibrated with 30 ml of Buffer A (20 mM Tris-HCl (pH 8.5), 5 mM 2-mercaptoethanol, 500 mM KCl, 20 mM imidazole and 10% (v/v) glycerol). The column was washed with 30 ml of Buffer A, 6 ml of Buffer B (20 mM Tris-HCl (pH 8.5), 5 mM 2-mercaptoethanol, 1 M KCl, and 10% (v/v) glycerol) and 6 ml of Buffer A in this order. Then, the column was eluted with 6 ml of Buffer C (20 mM Tris-HCl (pH 8.5), 5 mM 2-mercaptoethanol, 100 mM KCl, 100 mM imidazole, and 10% (v/v) glycerol) to provide a fraction. The fraction was entrapped in a dialysis membrane (purchased from Spectrum Laboratories), dialyzed at 4° C. overnight with 1 L of dialysis buffer (20 mM Tris-HCl (pH 7.5), 10% (v/v) glycerol, 1 mM dithiothreitol, 0.1 mM Na3VO4 and 0.1 mM EGTA), and stored at −80° C. until used. An aliquot of the dialyzed fraction was subjected to SDS electrophoresis, and then a recombinant protein (His6-HGFR, the HGFR cytoplasmic domain fused with six histidine at the N terminus) detected at a molecular weight of about 60 kDa when stained with Coomassie Brilliant Blue, was determined with regard to protein content using BSA (purchased from Sigma) as a standard. The VEGFR2 cytoplasmic domain, the FGFR1 cytoplasmic domain, and the PDGFRβ cytoplasmic domain were fused with six histidine at the N terminus by the similar method to produce respective recombinant proteins (His6-VEGFR2, His6-FGFR1, and His6-PDGFRβ). […]
# T1 sequence (P08581 956-1390 limits assumed): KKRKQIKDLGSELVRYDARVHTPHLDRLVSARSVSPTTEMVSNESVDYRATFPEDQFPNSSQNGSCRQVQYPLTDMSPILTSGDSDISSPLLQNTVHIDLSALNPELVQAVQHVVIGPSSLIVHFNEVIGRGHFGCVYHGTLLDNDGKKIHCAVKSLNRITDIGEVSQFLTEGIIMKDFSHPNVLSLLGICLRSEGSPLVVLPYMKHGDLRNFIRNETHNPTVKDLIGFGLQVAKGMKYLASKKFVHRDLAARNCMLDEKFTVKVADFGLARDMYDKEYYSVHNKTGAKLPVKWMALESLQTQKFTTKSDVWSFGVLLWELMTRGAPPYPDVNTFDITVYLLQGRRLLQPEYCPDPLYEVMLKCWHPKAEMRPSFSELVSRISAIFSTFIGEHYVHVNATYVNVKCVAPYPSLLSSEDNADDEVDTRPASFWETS
row,Compound,IC50 [nM]
1,"CN(C)C(=O)Nc1cc(Oc2ccc(NC(=O)NC(=O)Cc3ccc(F)cc3)cc2F)ncn1 [Example 51, 3-[6-(2-Fluoro-4-{3-[2-(4-fluorophenyl)acetyl]ureido}phenoxy)pyrimidin-4-yl]-1,1-dimethylurea]",18
2,"O=C(Cc1ccc(F)cc1)NC(=S)Nc1ccc(Oc2ccnc(NC(=O)N3CCN(CCN4CCC4)CC3)c2)cc1 [Example 398, 4-[2-(Azetidin-1-yl)ethyl]piperazine-1-carboxylic acid [4-(4-{3-[2-(4-fluorophenyl)acetyl]thioureido}phenoxy)pyridin-2-yl]amide]",47
3,"CN1CCN(C2CCN(C(=O)Nc3cc(Oc4ccc(NC(=O)NC(=O)Cc5ccccc5)cc4F)ccn3)CC2)CC1 [Example 340, 4-{2-Fluoro-4-[3-(2-phenylacetyl)ureido]phenoxy}-2-{[4-(1-methylpiperazin-4-yl)piperidin-1-yl]carbonylamino}pyridine]",77
4,"O=C(Cc1ccccc1)NC(=S)Nc1ccc(Oc2ccnc(NC(=O)N3CCC(N4CCC(O)CC4)CC3)c2)c(F)c1 [Example 185, 4-{2-Fluoro-4-[3-(2-phenylacetyl)thioureido]phenoxy}-2-{[4-(4-hydroxypiperidin-1-yl)piperidin-1-yl]carbonylamino}pyridine]",47
5,"CN(C(=O)Nc1cc(Oc2ccc(NC(=S)NC(=O)Cc3ccc(F)cc3)cc2F)ncn1)C1CCOCC1 [Example 288, 3-[6-(2-Fluoro-4-{3-[2-(4-fluorophenyl)acetyl]thioureido}phenoxy)pyrimidin-4-yl]-1-methyl-1-(tetrahydropyran-4-yl)urea]",16
6,"CN(C)[C@H]1CCN(C(=O)Nc2cc(Oc3ccc(NC(=O)NC(=O)Cc4ccccc4)cc3F)ccn2)C1 [Example 250, 2-{[(3S)-3-Dimethylaminopyrrolidin-1-yl]carbonylamino}-4-{2-fluoro-4-[3-(2-phenylacetyl)ureido]phenoxy}pyridine]",68
7,CN1CC(N2CCN(C(=O)Nc3cc(Oc4ccc(NC(=S)NC(=O)Cc5ccc(F)cc5)cc4F)ncn3)CC2)C1 [Example 196],57
8,"CN(C)C1CN(C2CCN(C(=O)Nc3cc(Oc4ccc(NC(=S)NC(=O)Cc5ccccc5)cc4F)ccn3)CC2)C1 [Example 373, 4-(3-Dimethylaminoazetidin-1-yl)piperidine-1-carboxylic acid {4-[2-fluoro-4-(3-phenylacetylthioureido)phenoxy]pyridin-2-yl}amide]",77
9,"CC(C)C(=O)Nc1cc(Oc2ccc(NC(=O)CC(=O)Nc3ccc(F)cc3)c(F)c2)ccn1 [Example 76, N-(4-Fluorophenyl)-N′-[4-(2-isobutylylaminopyridin-4-yloxy)-2-fluorophenyl]malonamide]",100
10,"CN(C)CC1CCN(C(=O)Nc2cc(Oc3ccc(NC(=S)NC(=O)Cc4ccc(F)cc4)cc3)ccn2)CC1 [Example 188, 2-{[4-(Dimethylaminomethyl)piperidin-1-yl]carbonylamino}-4-(4-{3-[2-(4-fluorophenyl)acetyl]thioureido}phenoxy)pyridine]",130
11,"CN1CCC(N(C)C(=O)Nc2cc(Oc3ccc(NC(=S)NC(=O)Cc4ccc(F)cc4)c(F)c3)ccn2)CC1 [Example 289, 3-[4-(3-Fluoro-4-{3-[2-(4-fluorophenyl)acetyl]thioureido}phenoxy)pyridin-2-yl]-1-methyl-1-(1-methylpiperidin-4-yl)urea]",67
12,"CN1CCC(N2CCN(C(=O)Nc3cc(Oc4ccc(NC(=O)NC(=O)Cc5ccccc5)cc4F)ccn3)CC2)CC1 [Example 341, 4-{2-Fluoro-4-[3-(2-phenylacetyl)ureido]phenoxy}-2-{[4-(1-methylpiperidin-4-yl)piperazin-1-yl]carbonylamino}pyridine]",100
13,"CN(C)[C@H]1CCN(C(=O)Nc2cc(Oc3ccc(NC(=S)NC(=O)Cc4ccccc4)cc3F)ccn2)C1 [Example 246, 2-{[(3S)-3-Dimethylaminopyrrolidin-1-yl]carbonylamino}-4-{2-fluoro-4-[3-(2-phenylacetyl)thioureido]phenoxy}pyridine]",79
14,"CN1CCN(C2CCN(C(=O)Nc3cc(Oc4ccc(NC(=S)NC(=O)Cc5ccccc5)cc4F)ccn3)CC2)CC1 [Example 182, 4-{2-Fluoro-4-[3-(2-phenylacetyl)thioureido]phenoxy}-2-{[4-(1-methylpiperazin-4-yl)piperidin-1-yl]carbonylamino}pyridine]",70
15,"CN1CCC(N(C)C(=O)Nc2cc(Oc3ccc(NC(=O)NC(=O)Cc4ccc(F)cc4)c(F)c3)ccn2)CC1 [Example 290, 3-[4-(3-Fluoro-4-{3-[2-(4-fluorophenyl)acetyl]ureido}phenoxy)pyridin-2-yl]-1-methyl-1-(1-methylpiperidin-4-yl)urea]",130
16,"CN1CCC[C@@H](N(C)C(=O)Nc2cc(Oc3ccc(NC(=S)NC(=O)Cc4ccc(F)cc4)cc3F)ncn2)C1 [Example 312, 3-[6-(2-Fluoro-4-{3-[2-(4-fluorophenyl)acetyl]thioureido}phenoxy)pyrimidin-4-yl]-1-methyl-1-[(3R)-1-methylpiperidin-3-yl]urea]",48
17,"O=C(Cc1ccc(F)cc1)NC(=S)Nc1ccc(Oc2ccnc(NC(=O)N3CCC(CN4CCC4)CC3)c2)cc1 [Example 394, 4-(Azetidin-1-ylmethyl)piperidine-1-carboxylic acid [4-(4-{3-[2-(4-fluorophenyl)acetyl]thioureido}phenoxy)pyridin-2-yl]amide]",45
18,"CN1CCN(C2CCN(C(=O)Nc3cc(Oc4ccc(NC(=O)NC(=O)Cc5ccc(F)cc5)cc4F)ccn3)CC2)CC1 [Example 343, 4-(2-Fluoro-4-{3-[2-(4-fluorophenyl)acetyl]ureido}phenoxy)-2-{[4-(1-methylpiperazin-4-yl)piperidin-1-yl]carbonylamino}pyridine]",120
19,"CN1CCC(N2CCN(C(=O)Nc3cc(Oc4ccc(NC(=O)NC(=O)Cc5ccc(F)cc5)cc4)ccn3)CC2)CC1 [Example 346, 4-(4-{3-[2-(4-Fluorophenyl)acetyl]ureido}phenoxy)-2-{[4-(1-methylpiperidin-4-yl)piperazin-1-yl]carbonylamino}pyridine]",100
20,"CN1CCC(N2CCN(C(=O)Nc3cc(Oc4ccc(NC(=S)NC(=O)Cc5ccc(F)cc5)cc4F)ncn3)CC2)CC1 [Example 193, 4-(2-Fluoro-4-{3-[2-(4-fluorophenyl)acetyl]thioureido}phenoxy)-6-{[4-(1-methylpiperidin-4-yl)piperazin-1-yl]carbonylamino}pyrimidine]",52
21,"CN(C)CCN1CCCN(C(=O)Nc2cc(Oc3ccc(NC(=S)NC(=O)Cc4ccccc4)cc3F)ccn2)CC1 [Example 334, 4-(2-Dimethylaminoethyl)-[1,4]diazepane-1-carboxylic acid {4-[2-fluoro-4-(3-phenylacetylthioureido)phenoxy]pyridin-2-yl}amide]",120
22,"CN1CC(N2CCN(C(=O)Nc3cc(Oc4ccc(NC(=S)NC(=O)Cc5ccc(F)cc5)cc4)ccn3)CC2)C1 [Example 337, 4-(1-Methylazetidin-3-yl)piperazine-1-carboxylic acid [4-(4-{3-[2-(4-fluorophenyl)acetyl]thioureido}phenoxy)pyridin-2-yl]amide]",150
